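In this assay, cells in 96-well plates receive the compound at five concentrations for 48 hours. Endpoints are linearly interpolated between the surrounding concentrations. TGI: total growth inhibition.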
Assays:
Experiment in all cases: growth of human tumour cells (NCI), 48 h
DLD-1 colon = system: DLD-1 colon
HOP-18 NSCLC = system: HOP-18 NSCLC
LXFL 529 NSCLC = system: LXFL 529 NSCLC
M19-MEL melanoma = system: M19-MEL melanoma
SNB-78 CNS = system: SNB-78 CNS
XF 498 CNS = system: XF 498 CNS
RXF-631 renal = system: RXF-631 renal
MDA-N = system: MDA-N
T-47D breast = system: T-47D breast

| Structure (SMILES) | TGI (DLD-1 colon) [µM] | TGI (LXFL 529 NSCLC) [µM] | TGI (M19-MEL melanoma) [µM] | TGI (MDA-N) [µM] | TGI (T-47D breast) [µM] | further results |
| --- | --- | --- | --- | --- | --- | --- |
| CN1N=C2c3ccccc3OC(c3ccccc3)[C@H]2C1c1ccccc1 (stereo not given in full) | > 100 | > 100 | > 100 | – | – | TGI (HOP-18 NSCLC): > 100 µM; TGI (SNB-78 CNS): > 100 µM; TGI (XF 498 CNS): > 100 µM |
| CC1SC2=NC3=C(c4ccccc4C3=O)C(c3ccccc3Cl)N2C1=O (stereo not given) | > 100 | > 100 | > 100 | – | – | TGI (RXF-631 renal): > 100 µM; TGI (XF 498 CNS): > 100 µM |
| CNC(=O)N1CN(c2ccccc2)C2(CCN(Cc3ccccc3)CC2)C1=O | – | – | – | > 100 | 11 | – |
| COn1oc(=O)c2ccccc21 | – | – | – | > 100 | – | – |
| CO/N=C(/C(=O)Nc1c[n+](CC(=O)[O-])cs1)c1csc(N)n1 | > 100 | > 100 | – | – | – | TGI (HOP-18 NSCLC): > 100 µM; TGI (SNB-78 CNS): > 100 µM; TGI (XF 498 CNS): > 100 µM |
| Cc1ccc2nc(CN(CCO)CCO)cc(=O)n2c1 | – | – | – | > 100 | – | – |
| COc1ccccc1/C=N/Nc1nnc2c3ccccc3c3ncccc3c2n1 | – | – | – | > 100 | > 100 | – |
| O=C1/C(=C/c2ccccc2)CCc2ccc([N+](=O)[O-])cc21 | – | – | – | > 100 | > 100 | – |
| O=C(O)c1ccccc1/C=C1/Cc2ccc3c(c2C1=O)CCC3 | – | – | – | > 100 | > 100 | – |
| OCC(O)COCn1cc(Cn2ncc3c(NCc4ccccc4)ncnc32)nn1 (stereo not given) | – | – | – | > 100 | > 100 | – |
| COc1cccc(C=O)c1[O-].COc1cccc(C=O)c1[O-].[Zn+2] | > 100 | > 100 | 98.6 | – | – | TGI (HOP-18 NSCLC): > 100 µM; TGI (SNB-78 CNS): > 100 µM |
| CSc1nc(NC2OCC(OC(C)=O)C(OC(C)=O)C2OC(C)=O)c2c(n1)OCC2=O (stereo not given) | > 100 | > 100 | > 100 | – | – | TGI (SNB-78 CNS): > 100 µM |
| O=C(c1ccccc1)N(CCCCNC(=O)C(F)(F)F)CCCNC(=O)C(F)(F)F | – | – | – | > 100 | > 100 | – |
| O=C1NC(=S)NC(=O)C1=CC1CC1 | > 100 | > 100 | > 100 | – | – | TGI (HOP-18 NSCLC): > 100 µM; TGI (SNB-78 CNS): > 100 µM; TGI (XF 498 CNS): > 100 µM |
| C#CC(C)(C)OCCCCOc1cc(O)c2c(=O)c3ccccc3n(C)c2c1 | > 100 | > 100 | > 100 | – | – | TGI (HOP-18 NSCLC): > 100 µM; TGI (SNB-78 CNS): > 100 µM; TGI (XF 498 CNS): > 100 µM |
| CCOC(=O)C(NC(=O)c1cccc(Cl)c1)(Nc1ccc(S(=O)(=O)Nc2cc(C)nc(C)n2)cc1)C(F)(F)F (stereo not given) | – | – | – | – | > 100 | – |
| CC(C)(CCl)NC(=O)c1cccc(C(=O)NC(C)(C)CCl)n1 | > 100 | > 100 | > 100 | – | – | TGI (RXF-631 renal): > 100 µM; TGI (SNB-78 CNS): > 100 µM |
| CCOP(=O)(Nc1ccc(-c2ccc(N)cc2)cc1)OCC | – | – | – | > 100 | – | – |
| [N-]=[N+]=Nc1c(-c2ccccc2)c(=O)n(-c2ccccc2)c2ccccc12 | – | – | – | > 100 | 82.2 | – |
| COc1ccc2nc3cc([N+](=O)[O-])ccc3c(Nc3ccc(S(=O)(=O)Nc4ncccn4)cc3)c2c1 | – | – | – | > 100 | > 100 | – |

| Structure (SMILES) | TGI (DLD-1 colon) [µM] | TGI (LXFL 529 NSCLC) [µM] | TGI (M19-MEL melanoma) [µM] | TGI (MDA-N) [µM] | TGI (T-47D breast) [µM] | further results |
| --- | --- | --- | --- | --- | --- | --- |
| CCc1cccc(C(C)CC)c1NC(=O)C(=O)Cc1nc2ccccc2o1 (stereo not given) | > 50 | > 50 | > 50 | – | – | TGI (SNB-78 CNS): > 50 µM; TGI (XF 498 CNS): > 50 µM |
| CNS(=O)(=O)NNS(=O)(=O)c1ccc(F)cc1 | > 100 | > 100 | > 100 | – | – | TGI (RXF-631 renal): > 100 µM; TGI (XF 498 CNS): > 100 µM |
| COc1cc(NC(C)=O)ccc1C(=O)N/N=C/c1ccco1 | – | – | – | > 100 | > 100 | – |
| COC(=O)c1sc2c(=O)c(C(=O)OC)c(C(=O)OC)sc2c(=O)c1C(=O)OC | – | – | – | > 100 | > 100 | – |
| Cc1cccc(N=Cc2ccc(N(CCC#N)S(=O)(=O)c3ccccc3)cc2C)c1 | > 100 | > 100 | > 100 | – | – | TGI (RXF-631 renal): > 100 µM; TGI (XF 498 CNS): > 100 µM |
| N#CC1(C#N)[C@@H]2CCC=C(Sc3ccccc3)[C@@H]21 | – | – | – | 34.1 | 52.4 | – |
| COc1ccc(N/N=C/C2=CC(C)(C)C(C#N)(C#N)C(O)=C2C#N)cc1 | – | – | – | > 100 | > 100 | – |
| CCOC(=O)[C@@H](NC(=O)OC(C)(C)C)[C@@H](O)C(=O)OCC | – | – | – | > 100 | > 100 | – |
| CCc1ccc(Cc2ccc(CC)c(NC(=O)C(=O)C3NC(=S)NC3=O)c2CC)c(CC)c1NC(=O)C(=O)C1NC(=S)NC1=O (stereo not given) | > 100 | > 100 | > 100 | – | – | TGI (RXF-631 renal): > 100 µM; TGI (SNB-78 CNS): > 100 µM |
| Cc1nc(-n2nc(-c3ccccc3)cc2-c2ccccc2)sc1C(=O)/C=C/c1ccc([N+](=O)[O-])cc1 | 36.2 | – | 98.9 | 59.8 | > 100 | TGI (HOP-18 NSCLC): > 100 µM; TGI (RXF-631 renal): > 100 µM; TGI (SNB-78 CNS): > 100 µM |
| CC(C)(C)OC(=O)N1CC(C)(C)N2C(=O)C3(CCCO3)C12 (stereo not given) | > 100 | > 100 | > 100 | – | – | TGI (HOP-18 NSCLC): > 100 µM; TGI (SNB-78 CNS): > 100 µM |
| Oc1ccc(C2Oc3cc(O)cc4c3C2c2cc(O)cc3c2C(c2cc(O)cc5c2C4C(c2ccc(O)cc2)O5)C(c2ccc(O)cc2)O3)cc1 (stereo not given) | > 25 | > 25 | > 25 | – | – | TGI (XF 498 CNS): 24.5 µM |
| CN(/N=C/c1ccc(Cl)c(Cl)c1)C1=NCCCCN1 | – | – | – | 42.2 | > 100 | – |
| O=C1c2cn[nH]c2N=C(Nc2ccccc2)C1N=Cc1ccc([N+](=O)[O-])cc1 (stereo not given) | – | – | – | > 10 | – | – |
| CN(C)/C=C/c1c2c(nc3ccccc13)C(=O)c1cccnc1C2=O | – | – | – | 1.92 | 21.6 | – |
| CC(ON1[C@](C)(c2ccccc2)CC[C@@]1(C)c1ccccc1)c1ccccc1 (stereo not given in full) | – | – | – | – | 87.3 | – |
| O=C(Nc1ccccc1)c1cc(S(=O)(=O)N2CCNC2=O)c(S)cc1Cl | – | – | – | > 100 | > 100 | – |
| C1=CCC[C@@H]2CN3CCCC/C=C\CCCC[C@H]4C[C@H](CN(CCCCCCCC1)C4)[C@H]2CC3 | – | – | – | 16.2 | 20.8 | – |
| C=CCc1cccc2cc(C(=O)Nc3ccc(C)cc3)c(=N)oc12 | – | – | – | > 100 | > 100 | – |
